Source: ChEMBL document CHEMBL1134932, “Bridged bicyclic vasopressin receptor antagonists with V(2)-selective or dual V(1a)/V(2) activity” (Bioorg Med Chem Lett, 2002)
Blank lines part the entries; values can stand above or below the compound they belong to.

Legend:
Vasopressin V2 receptor [1] = biological target: T1, Vasopressin V2 receptor (Homo sapiens, UniProt P30518); assay: Inhibition of AVP mediated activation of human vasopressin V2 receptor expressed in HEK293 cells; type: cell-based
Vasopressin V1a receptor [2] = biological target: T2, Vasopressin V1a receptor (Homo sapiens, UniProt P37288); assay: Inhibition of [3H]Arg-vasopressin binding to recombinant human vasopressin V1a receptor
Target sequence in this assay (P37288 whole entry): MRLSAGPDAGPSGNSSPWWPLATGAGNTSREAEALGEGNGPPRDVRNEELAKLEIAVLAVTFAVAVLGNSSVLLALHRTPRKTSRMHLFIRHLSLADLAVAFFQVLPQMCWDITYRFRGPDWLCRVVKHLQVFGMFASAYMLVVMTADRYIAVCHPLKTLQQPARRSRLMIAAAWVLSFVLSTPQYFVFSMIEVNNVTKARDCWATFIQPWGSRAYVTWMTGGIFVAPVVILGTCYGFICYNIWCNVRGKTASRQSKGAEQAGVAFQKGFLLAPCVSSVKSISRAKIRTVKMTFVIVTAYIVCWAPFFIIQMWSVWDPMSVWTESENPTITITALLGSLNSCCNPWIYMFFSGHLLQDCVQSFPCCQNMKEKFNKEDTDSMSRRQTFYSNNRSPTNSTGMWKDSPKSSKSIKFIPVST

Vasopressin V2 receptor [3] = biological target: T1, Vasopressin V2 receptor; assay: Inhibition of [3H]Arg-vasopressin binding to recombinant human vasopressin V2 receptor
Vasopressin V1a receptor [4] = biological target: T2, Vasopressin V1a receptor; assay: Inhibition of [3H]Arg-vasopressin binding to recombinant human vasopressin V1a receptor at 0.1 uM
Target sequence in this assay (P37288 whole entry, looked up): as the sequence (P37288 whole entry) above

Vasopressin V1a receptor [5] = biological target: T2, Vasopressin V1a receptor; assay: Inhibition of AVP mediated activation of human vasopressin V1a receptor expressed in HEK293 cells; type: cell-based
Target sequence in this assay (P37288 whole entry): as above

Rattus norvegicus [6] = assay: Effective dose for reversal of AVP-Induced Hypertension in pentobarbital-anesthetized male Long-Evans rats.; type: functional
[7] = Half life tested in mature male rat at a dose of 30 mg/kg; type: ADME, organism-based; set-up: dose 30 mg/kg; details: in vivo
Rattus norvegicus [8] = assay: The clearance rate in mature male rat at a intravenous dose of 3 mg/kg; type: ADME, organism-based; set-up: dose 3 mg/kg, route intravenous; details: in vivo
Rattus norvegicus [9] = assay: The Urine osmolality in 9 male Sprague-Dawley rats after 4 hrs at a dose of 0.3 mg/kg by oral route; type: functional
[10] = The maximum plasma levels for the compounds were determined by LC-MS.; type: ADME, organism-based; details: rat
Rattus norvegicus [11] = assay: The diuretic effect in 10 male Sprague-Dawley rats after 4 hrs at a dose of 1 mg/kg by oral route; type: functional, Urine
Rattus norvegicus [12] = assay: The Urine osmolality in 10 male Sprague-Dawley rats after 4 hrs at a dose of 3 mg/kg by oral route; type: functional
Rattus norvegicus [13] = assay: The Urine osmolality in 10 male Sprague-Dawley rats after 4 hrs at a dose of 1 mg/kg by oral route; type: functional
Rattus norvegicus [14] = assay: The diuretic effect in 10 male Sprague-Dawley rats after 4 hrs at a dose of 3 mg/kg by oral route; type: functional, Urine
Rattus norvegicus [15] = assay: The diuretic effect in 9 male Sprague-Dawley rats after 4 hrs at a dose of 0.3 mg/kg by oral route; type: functional, Urine
Rattus norvegicus [16] = assay: The Urine osmolality in 10 male Sprague-Dawley rats after 4 hrs at a dose of 10 mg/kg by oral route; type: functional
[17] = Oral bioavailability in rat (mature male) (dose 30 mg/kg); type: ADME, organism-based; details: in vivo
Rattus norvegicus [18] = assay: The diuretic effect in 10 male Sprague-Dawley rats after 4 hrs at a dose of 10 mg/kg by oral route; type: functional, Urine
Cytochrome P450 2C9 = Cytochrome P450 2C9 (Homo sapiens, UniProt P11712); assay: Inhibition of cytochrome P450 2C9; type: ADME
Rattus norvegicus [19] = assay: Excretion of potassium at a dose of 10 mg/kg in male Sprague-Dawley rats; type: functional
Rattus norvegicus [20] = assay: Excretion of sodium at a dose of 10 mg/kg in male Sprague-Dawley rats; type: functional
Rattus norvegicus [21] = assay: Excretion of Creatinine at a dose of 3 mg/kg in male Sprague-Dawley rats; type: functional
Rattus norvegicus [22] = assay: Excretion of potassium at a dose of 3 mg/kg in male Sprague-Dawley rats; type: functional
Rattus norvegicus [23] = assay: Excretion of potassium at a dose of 1 mg/kg in male Sprague-Dawley rats; type: functional
Rattus norvegicus [24] = assay: Excretion of Creatinine at a dose of 1 mg/kg in male Sprague-Dawley rats; type: functional
Rattus norvegicus [25] = assay: Excretion of sodium at a dose of 1 mg/kg in male Sprague-Dawley rats; type: functional
Rattus norvegicus [26] = assay: Excretion of sodium at a dose of 3 mg/kg in male Sprague-Dawley rats; type: functional
Rattus norvegicus [27] = assay: Excretion of Creatinine at a dose of 10 mg/kg in male Sprague-Dawley rats; type: functional

T1 sequence (P30518 whole entry): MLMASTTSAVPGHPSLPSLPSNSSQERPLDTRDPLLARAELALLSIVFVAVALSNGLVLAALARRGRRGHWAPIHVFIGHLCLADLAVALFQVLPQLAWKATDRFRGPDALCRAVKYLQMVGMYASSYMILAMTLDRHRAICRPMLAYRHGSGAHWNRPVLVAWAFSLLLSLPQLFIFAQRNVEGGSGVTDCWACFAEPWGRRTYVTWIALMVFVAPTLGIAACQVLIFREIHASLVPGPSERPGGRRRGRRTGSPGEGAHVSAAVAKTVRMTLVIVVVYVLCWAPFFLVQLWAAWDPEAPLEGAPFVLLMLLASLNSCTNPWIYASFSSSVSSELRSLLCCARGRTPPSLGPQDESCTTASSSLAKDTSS
Cytochrome P450 2C9, sequence (P11712 whole entry): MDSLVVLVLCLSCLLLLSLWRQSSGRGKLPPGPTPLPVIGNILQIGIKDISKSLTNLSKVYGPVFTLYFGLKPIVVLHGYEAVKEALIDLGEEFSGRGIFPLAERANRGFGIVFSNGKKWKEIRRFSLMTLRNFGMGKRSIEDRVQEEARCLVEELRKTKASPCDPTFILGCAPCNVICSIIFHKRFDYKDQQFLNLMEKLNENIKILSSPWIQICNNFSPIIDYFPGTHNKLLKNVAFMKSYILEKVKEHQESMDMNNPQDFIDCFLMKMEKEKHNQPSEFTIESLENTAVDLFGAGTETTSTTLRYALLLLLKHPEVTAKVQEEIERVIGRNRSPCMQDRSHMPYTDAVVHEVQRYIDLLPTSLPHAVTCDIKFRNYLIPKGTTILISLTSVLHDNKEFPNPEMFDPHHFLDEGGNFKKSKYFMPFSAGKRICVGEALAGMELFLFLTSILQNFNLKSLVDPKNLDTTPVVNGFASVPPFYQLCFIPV

Ki (Vasopressin V2 receptor [1]): 90 nM | IC50 (Vasopressin V1a receptor [2]): 150 nM | IC50 (Vasopressin V2 receptor [3]): 5 nM
SMILES: Cc1ccc(F)cc1C(=O)Nc1ccc(C(=O)N2Cc3cccn3Cc3ccccc32)c(Cl)c1 [LIXIVAPTAN]

inhibition (Vasopressin V1a receptor [4]): 30% | IC50 (Vasopressin V2 receptor [3]): 4 nM
SMILES: O=C(Nc1ccc(C(=O)N2CC3C4CCC(CC4)N3Cc3ccccc32)c(Cl)c1)c1ccccc1-c1ccccc1 (centres undefined)

Ki (Vasopressin V2 receptor [1]): 520 nM | IC50 (Vasopressin V1a receptor [2]): 35 nM | Ki (Vasopressin V1a receptor [5]): 620 nM | IC50 (Vasopressin V2 receptor [3]): 13 nM
SMILES: O=C(Nc1ccc(C(=O)N2C[C@@H]3C4CCC(CC4)N3Cc3cc(Cl)ccc32)cc1)c1ccccc1Cl

IC50 (Vasopressin V1a receptor [2]): ~100 nM
SMILES: O=C(Nc1ccc(C(=O)N2CC3C4CCC(CC4)N3Cc3ccccc32)cc1)c1ccccc1-c1ccccc1 (centres undefined)

inhibition (Vasopressin V1a receptor [4]): 15% | IC50 (Vasopressin V2 receptor [3]): 19 nM
SMILES: Cc1cc(F)cc(C(=O)Nc2ccc(C(=O)N3C[C@@H]4C5CCC(CC5)N4Cc4ccccc43)c(Cl)c2)c1

Further lines, the compound ahead of its results:

SMILES: O=C(Nc1ccc(C(=O)N2C[C@@H]3C4CCC(C4)N3Cc3cc(Cl)ccc32)cc1)c1ccccc1C(F)(F)F (some centres undefined)
Ki (Vasopressin V2 receptor [1]): 9 nM | IC50 (Vasopressin V1a receptor [2]): 4 nM | Ki (Vasopressin V1a receptor [5]): 40 nM | ED50 (Rattus norvegicus [6]): 0.38 mg/kg | IC50 (Vasopressin V2 receptor [3]): 7 nM

SMILES: O=C(Nc1ccc(C(=O)N2C[C@@H]3C4CCC(C4)N3Cc3cc(Cl)ccc32)cc1)c1ccccc1Cl (some centres undefined)
Ki (Vasopressin V2 receptor [1]): 32 nM | IC50 (Vasopressin V1a receptor [2]): 5 nM | Ki (Vasopressin V1a receptor [5]): 130 nM | IC50 (Vasopressin V2 receptor [3]): 10 nM

SMILES: O=C(Nc1ccc(C(=O)N2C[C@@H]3C4CCC(C4)N3Cc3ccccc32)c(Cl)c1)c1ccccc1-c1ccccc1 (some centres undefined)
Ki (Vasopressin V2 receptor [1]): 9 nM | half-life [7]: 5 h | Clearance (Rattus norvegicus [8]): 1.2 mg/kg/µM/h | Ki (Vasopressin V1a receptor [5]): 130 nM | Urine osmolality (Rattus norvegicus [9]): 444 mOsmol kg-1 | Cmax [10]: 650 nM | ED50 (Rattus norvegicus [6]): 0.217 mg/kg | Urine volume (Rattus norvegicus [11]): 6 mL | Urine osmolality (Rattus norvegicus [12]): 180 mOsmol kg-1 | Urine osmolality (Rattus norvegicus [13]): 299 mOsmol kg-1 | Urine volume (Rattus norvegicus [14]): 15.1 mL | Urine volume (Rattus norvegicus [15]): 2.5 mL | Urine osmolality (Rattus norvegicus [16]): 138 mOsmol kg-1 | bioavailability [17]: 14% | Urine volume (Rattus norvegicus [18]): 29.9 mL

SMILES: O=C(Nc1ccc(C(=O)N2C[C@@H]3C4CCC(C4)N3Cc3cc(Cl)ccc32)cc1)c1ccccc1F (some centres undefined)
Ki (Vasopressin V2 receptor [1]): 180 nM | IC50 (Vasopressin V1a receptor [2]): 68 nM | Ki (Vasopressin V1a receptor [5]): 2600 nM | IC50 (Vasopressin V2 receptor [3]): 26 nM

SMILES: O=C(Nc1ccc(C(=O)N2C[C@H]3C4CCC(C4)N3Cc3ccccc32)c(Cl)c1)c1ccccc1-c1ccccc1 (some centres undefined)
Ki (Vasopressin V2 receptor [1]): 30 nM | half-life [7]: 2.5 h | Clearance (Rattus norvegicus [8]): 3.3 mg/kg/µM/h | Urine osmolality (Rattus norvegicus [9]): 408 mOsmol kg-1 | Cmax [10]: 230 nM | Urine volume (Rattus norvegicus [11]): 3.4 mL | Urine osmolality (Rattus norvegicus [12]): 238 mOsmol kg-1 | Urine osmolality (Rattus norvegicus [13]): 303 mOsmol kg-1 | Urine volume (Rattus norvegicus [14]): 9.4 mL | inhibition (Vasopressin V1a receptor [4]): 7% | Urine volume (Rattus norvegicus [15]): 1.4 mL | Urine osmolality (Rattus norvegicus [16]): 172 mOsmol kg-1 | bioavailability [17]: 10% | Urine volume (Rattus norvegicus [18]): 19.5 mL

SMILES: Cc1ccc(-c2ccccc2C(=O)Nc2ccc(C(=O)N3C[C@@H]4C5CCC(C5)N4Cc4cc(Cl)ccc43)cc2)cc1 (some centres undefined)
Ki (Vasopressin V2 receptor [1]): 13 nM | IC50 (Cytochrome P450 2C9): 7400 nM | Excretion (Rattus norvegicus [19]): 0.64 m equiv 4hr-1 | Excretion (Rattus norvegicus [20]): 0.52 m equiv 4hr-1 | half-life [7]: 2.5 h | Excretion (Rattus norvegicus [21]): 16.2 mg/dL | Clearance (Rattus norvegicus [8]): 2.1 mg/kg/µM/h | Ki (Vasopressin V1a receptor [5]): 23 nM | Cmax [10]: 320 nM | ED50 (Rattus norvegicus [6]): 0.0074 mg/kg | Urine volume (Rattus norvegicus [11]): 2.9 mL | Excretion (Rattus norvegicus [22]): 0.34 m equiv 4hr-1 | Urine osmolality (Rattus norvegicus [12]): 226 mOsmol kg-1 | Excretion (Rattus norvegicus [23]): 0.3 m equiv 4hr-1 | Urine osmolality (Rattus norvegicus [13]): 387 mOsmol kg-1 | Urine volume (Rattus norvegicus [14]): 5.8 mL | Excretion (Rattus norvegicus [24]): 31.4 mg/dL | Urine osmolality (Rattus norvegicus [16]): 159 mOsmol kg-1 | bioavailability [17]: 7% | Excretion (Rattus norvegicus [25]): 0.07 m equiv 4hr-1 | Excretion (Rattus norvegicus [26]): 0.16 m equiv 4hr-1 | Urine volume (Rattus norvegicus [18]): 17.8 mL | Excretion (Rattus norvegicus [27]): 7.7 mg/dL

SMILES: Cc1ccc(-c2ccccc2C(=O)Nc2ccc(C(=O)N3C[C@@H]4C5CCC(C5)N4Cc4cc(Cl)ccc43)c(Cl)c2)cc1 (some centres undefined)
IC50 (Vasopressin V1a receptor [2]): 35 nM | IC50 (Vasopressin V2 receptor [3]): 30 nM
